Test system: Tick-borne encephalitis virus
Test: Antiviral activity against TBEV infected in porcine PEK cells assessed as reduction in cytopathic effect by plaque reduction assay
Type: functional, organism-based
Conditions: not given

Point of comparison: `OC[C@H]1O[C@@H](n2cnc3c(NCc4ccc(-c5ccccc5C(F)(F)F)cc4)ncnc32)[C@H](O)[C@@H]1O`, EC50 17 µM. Against it:
- OC[C@H]1O[C@@H](n2cnc3c(NCc4ccc(C#Cc5cc(C(F)(F)F)cc(C(F)(F)F)c5)cc4)ncnc32)[C@H](O)[C@@H]1O — 7.7-fold lower, 2.2 µM
- OC[C@H]1O[C@@H](n2cnc3c(NCc4ccccc4C(F)(F)F)ncnc32)[C@H](O)[C@@H]1O — higher, > 50 µM
- OC[C@H]1O[C@@H](n2cnc3c(NCc4cc(C(F)(F)F)cc(C(F)(F)F)c4)ncnc32)[C@H](O)[C@@H]1O — higher, > 50 µM

Test system: Tick-borne encephalitis virus
Test: Antiviral activity against TBEV infected in porcine PS cells assessed as inhibition of virus induced cytopathic effect pre-infected with virus followed by compound addition and measured after 3 to 4 days by microscope based analysis
Type: functional, organism-based
Conditions: not given

Point of comparison: `C[C@@]1(O)[C@H](O)[C@@H](CO)O[C@H]1n1cnc2c(N)ncnc21`, EC50 7.1 µM. Against it:
- C[C@@]1(O)[C@H](O)[C@@H](CO)O[C@H]1n1ccc(N)nc1=O — 2-fold higher, 14.2 µM
- C[C@@]1(O)[C@H](O)[C@@H](CO)O[C@H]1n1ccc2c(N)ncnc21 [BETA-2'-C-METHYL-7-DEAZA-ADENOSINE] — within 1.5-fold, 5.1 µM

Test system: not listed separately
Test: Cytotoxicity against African green monkey Vero cells assessed as reduction in cell viability after 24 hrs by resazurin staining based analysis
Type: toxicity
Conditions: chlorocebus sabaeus

For `OC[C@H]1O[C@@H](n2cnc3c(NCc4ccc(-c5ccccc5C(F)(F)F)cc4)ncnc32)[C@H](O)[C@@H]1O`, the CC50 at 24 h was greater than 50 µM.

Test system: Tick-borne encephalitis virus
Test: Antiviral activity against TBEV infected in porcine PS cells pretreated with cells followed by viral infection and measured after 3 days post infection by microscope based analysis
Type: functional, organism-based
Conditions: not given

`[N-]=[N+]=N[C@]1(CO)O[C@@H](n2ccc(N)nc2=O)[C@H](O)[C@@H]1O` [4'-AZIDOCYTIDINE] gave an EC50 of 2.7 µM.

Test system: Tick-borne encephalitis virus
Test: Antiviral activity against TBEV infected in human A549 cells assessed as reduction in cytopathic effect pretreated with cells for 1 hr followed by viral infection and measured after 3 days
Type: functional, organism-based
Conditions: not given

Compound `C#C[C@@]1(O)[C@H](O)[C@@H](CO)O[C@H]1n1ccc2c(N)ncnc21` has an EC50 of 0.2 µM.

Test system: not listed separately
Test: Cytotoxicity against porcine PEK cells assessed as reduction in cell viability after 24 hrs by resazurin staining based analysis
Type: toxicity, Sus scrofa
Conditions: pig

`OC[C@H]1O[C@@H](n2cnc3c(NCc4ccc(-c5ccccc5C(F)(F)F)cc4)ncnc32)[C@H](O)[C@@H]1O` gave a CC50 at 24 h greater than 50 µM.

Test system: West Nile virus
Test: Antiviral activity against WNV infected in African green monkey Vero cells assessed as reduction in cytopathic effect by plaque reduction assay
Type: functional, organism-based
Conditions: not given

Point of comparison: `OC[C@H]1O[C@@H](n2cnc3c(NCc4ccc(C#Cc5cc(C(F)(F)F)cc(C(F)(F)F)c5)cc4)ncnc32)[C@H](O)[C@@H]1O`, EC50 1.5 µM. Against it:
- OC[C@H]1O[C@@H](n2cnc3c(NCc4ccccc4C(F)(F)F)ncnc32)[C@H](O)[C@@H]1O — 5.1-fold higher, 7.7 µM
- OC[C@H]1O[C@@H](n2cnc3c(NCc4ccc(-c5ccccc5C(F)(F)F)cc4)ncnc32)[C@H](O)[C@@H]1O — 16-fold higher, 24 µM
- OC[C@H]1O[C@@H](n2cnc3c(NCc4cc(C(F)(F)F)cc(C(F)(F)F)c4)ncnc32)[C@H](O)[C@@H]1O — 11-fold higher, 16 µM

Test system: not listed separately
Test: Cytotoxicity against African green monkey Vero cells assessed as reduction in cell viability after 7 days by resazurin staining based analysis
Type: toxicity
Conditions: chlorocebus sabaeus, time 7 day

Point of comparison: `OC[C@H]1O[C@@H](n2cnc3c(NCc4ccc(C#Cc5cc(C(F)(F)F)cc(C(F)(F)F)c5)cc4)ncnc32)[C@H](O)[C@@H]1O`, CC50 at 168 h 15.7 µM. Against it:
- NC(=O)c1nc(F)cnc1O [FAVIPIRAVIR] — higher, > 1000 µM
- OC[C@H]1O[C@@H](n2cnc3c(NCc4ccccc4C(F)(F)F)ncnc32)[C@H](O)[C@@H]1O — higher, > 50 µM
- OC[C@H]1O[C@@H](n2cnc3c(NCc4ccc(-c5ccccc5C(F)(F)F)cc4)ncnc32)[C@H](O)[C@@H]1O — higher, > 41 µM
- OC[C@H]1O[C@@H](n2cnc3c(NCc4cc(C(F)(F)F)cc(C(F)(F)F)c4)ncnc32)[C@H](O)[C@@H]1O — higher, > 50 µM

Test system: Tick-borne encephalitis virus
Test: Antiviral activity against TBEV infected in porcine PS cells assessed as r inhibition of virus induced cytopathic effect pretreated with cells for 24 hrs followed by viral infection for 24 hrs and measured after 72 hrs post infection
Type: functional, organism-based
Conditions: not given

For `Nc1ncnc2c1ncn2[C@@H]1O[C@H](CO)[C@@H](F)[C@H]1O`, the EC50 was 1.6 µM.

Test system: West Nile virus
Test: Antiviral activity against WNV NY99 infected in African green monkey Vero cells pretreated with cells for 16 hrs followed by viral infection for 1 hr and measured after 48 hrs by plaque assay
Type: functional, organism-based
Conditions: not given

In the case of `NC(=O)c1nc(F)cnc1O` [FAVIPIRAVIR], the EC50 is reported as 94 µM.

Test system: not listed separately
Test: Cytotoxicity against human RD cells
Type: toxicity, cell-based
Conditions: not given

For `OC[C@H]1O[C@@H](n2cnc3c(NCc4c(F)cccc4F)ncnc32)[C@H](O)[C@@H]1O`, the CC50 was greater than 245 µM.

Test system: Enterovirus A71
Test: Antiviral activity against human EV71 BrCr infected human RD cells assessed as reduction in cytopathic effect pretreated with cells followed by viral infection and measured after 3 to 4 days post infection
Type: functional, organism-based
Conditions: Enterovirus A

Compound `OC[C@H]1O[C@@H](n2cnc3c(NCc4c(F)cccc4F)ncnc32)[C@H](O)[C@@H]1O` has an EC50 of 0.21 µM.

Test system: not listed separately
Test: Cytotoxicity against porcine PEK cells assessed as reduction in cell viability after 7 days by resazurin staining based analysis
Type: toxicity, Sus scrofa
Conditions: pig, time 7 day

Point of comparison: `OC[C@H]1O[C@@H](n2cnc3c(NCc4ccc(C#Cc5cc(C(F)(F)F)cc(C(F)(F)F)c5)cc4)ncnc32)[C@H](O)[C@@H]1O`, CC50 at 168 h 8.1 µM. Against it:
- OC[C@H]1O[C@@H](n2cnc3c(NCc4ccccc4C(F)(F)F)ncnc32)[C@H](O)[C@@H]1O — higher, > 50 µM
- OC[C@H]1O[C@@H](n2cnc3c(NCc4ccc(-c5ccccc5C(F)(F)F)cc4)ncnc32)[C@H](O)[C@@H]1O — higher, > 50 µM
- OC[C@H]1O[C@@H](n2cnc3c(NCc4cc(C(F)(F)F)cc(C(F)(F)F)c4)ncnc32)[C@H](O)[C@@H]1O — higher, > 50 µM

Test system: Yellow fever virus
Test: Antiviral activity against YFV infected in African green monkey Vero cells assessed as reduction in cytopathic effect by plaque reduction assay
Type: functional, organism-based
Conditions: not given

Point of comparison: `OC[C@H]1O[C@@H](n2cnc3c(NCc4ccc(-c5ccccc5C(F)(F)F)cc4)ncnc32)[C@H](O)[C@@H]1O`, EC50 46 µM. Against it:
- OC[C@H]1O[C@@H](n2cnc3c(NCc4ccc(C#Cc5cc(C(F)(F)F)cc(C(F)(F)F)c5)cc4)ncnc32)[C@H](O)[C@@H]1O — 8.2-fold lower, 5.6 µM
- OC[C@H]1O[C@@H](n2cnc3c(NCc4ccccc4C(F)(F)F)ncnc32)[C@H](O)[C@@H]1O — higher, > 50 µM
- OC[C@H]1O[C@@H](n2cnc3c(NCc4cc(C(F)(F)F)cc(C(F)(F)F)c4)ncnc32)[C@H](O)[C@@H]1O — higher, > 50 µM

Reference: ChEMBL document CHEMBL5523668, “Elongation of N6-benzyladenosine scaffold via Pd-catalyzed C-C bond formation leads to derivatives with antiflaviviral activity” (Bioorg Med Chem, 2024)
